Assay results from PubChem BioAssay (NCI).
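Following 48 hours of exposure in 96-well plates, responses at five concentrations were used to interpolate endpoints linearly. The concentration for 50% growth inhibition is given as GI50. TGI: concentration producing complete growth inhibition.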

Assays:
Assay in all cases: NCI tumour cell line growth inhibition, 48 h
[1] = tested on: T-47D breast
[2] = tested on: MDA-MB-435
[3] = tested on: MCF7 breast
[4] = tested on: MDA-MB-231 breast
[5] = tested on: MALME-3M melanoma
[6] = tested on: HCT-116 colon
[7] = tested on: PC-3 prostate
[8] = tested on: HL-60(TB) leukemia
[9] = tested on: MOLT-4 leukemia
[10] = tested on: UACC-62 melanoma
[11] = tested on: SF-539 CNS
[12] = tested on: COLO 205 colon
[13] = tested on: HCC-2998 colon
[14] = tested on: SK-MEL-2 melanoma
[15] = tested on: KM12 colon
[16] = tested on: HT29 colon
[17] = tested on: NCI-H23 lung
[18] = tested on: HS 578T breast
[19] = tested on: SN12C renal
[20] = tested on: UACC-257 melanoma
[21] = tested on: OVCAR-3 ovarian
[22] = tested on: NCI-H522 lung
[23] = tested on: CCRF-CEM leukemia
[24] = tested on: DU-145 prostate
[25] = tested on: RPMI-8226 leukemia
[26] = tested on: OVCAR-8 ovarian
[27] = tested on: OVCAR-5 ovarian
[28] = tested on: NCI-H226 lung
[29] = tested on: SW-620 colon
[30] = tested on: HCT-15 colon
[31] = tested on: M14 melanoma
[32] = tested on: SK-MEL-5 melanoma
[33] = tested on: LOX IMVI melanoma
[34] = tested on: SR leukemia
[35] = tested on: K-562 leukemia

With `COc1cc2c3c(n(CCCN4CCCCC4)c(=O)c2cc1OC)-c1cc2c(cc1C3=O)OCO2` the GI50 [1] was 1580 nM, the TGI [1] was 3560 nM and the GI50 [2] was 1660 nM. It also gave a TGI [2] of 3220 nM, a GI50 [3] of 145 nM and a TGI [3] of 2050 nM. It also gave a GI50 [4] of 1210 nM, a TGI [4] of 2590 nM and a GI50 [5] of 1650 nM. It also gave a TGI [5] of 3450 nM, a GI50 [6] of 150 nM and a TGI [6] of 309 nM. It also gave a GI50 [7] of 1260 nM, a TGI [7] of 2690 nM and a GI50 [8] of 341 nM. The TGI [8] was 965 nM, the GI50 [9] was 42.3 nM and the TGI [9] was 2020 nM. It also gave a GI50 [10] of 1380 nM, a TGI [10] of 2830 nM and a GI50 [11] of 1460 nM. It also gave a TGI [11] of 2830 nM, a GI50 [12] of 1110 nM and a TGI [12] of 2430 nM. The GI50 [13] was 1220 nM, the TGI [13] was 2470 nM and the GI50 [14] was 12400 nM. It also gave a TGI [14] of 28300 nM, a GI50 [15] of 1510 nM and a TGI [15] of 2850 nM. For the same molecule, the GI50 [16] was 1280 nM, the TGI [16] was 2670 nM and the GI50 [17] was 1530 nM. It also gave a TGI [17] of 3010 nM, a GI50 [18] of 2070 nM and a TGI [18] of 4770 nM. The GI50 [19] was 1590 nM, the TGI [19] was 3050 nM and the GI50 [20] was 1760 nM. For the same molecule, the TGI [20] was 3960 nM, the GI50 [21] was 1630 nM and the TGI [21] was 3020 nM. For the same molecule, the GI50 [22] was 932 nM, the TGI [22] was 2460 nM and the GI50 [23] was 130 nM. For the same molecule, the TGI [23] was 988 nM, the GI50 [24] was 1370 nM and the TGI [24] was 2680 nM. It also gave a GI50 [25] of 333 nM, a TGI [25] of 1470 nM and a GI50 [26] of 1680 nM. For the same molecule, the TGI [26] was 4170 nM, the GI50 [27] was 1840 nM and the TGI [27] was 3290 nM. For the same molecule, the GI50 [28] was 1540 nM, the TGI [28] was 3690 nM and the GI50 [29] was 193 nM. The TGI [29] was 1350 nM, the GI50 [30] was 1260 nM and the TGI [30] was 2600 nM. It also gave a GI50 [31] of 1590 nM, a TGI [31] of 3050 nM and a GI50 [32] of 1600 nM. The TGI [32] was 3010 nM, the GI50 [33] was 716 nM and the TGI [33] was 2150 nM. It also gave a GI50 [34] of 143 nM, a TGI [34] of 893 nM and a GI50 [35] of 179 nM. The TGI [35] was 499 nM.
